Laboratory results from ChEMBL document CHEMBL5543109, “Novel β-Hairpin Antimicrobial Peptide Containing the β-Turn Sequence of -NG- and the Tryptophan Zippers Facilitate Self-Assembly into Nanofibers, Exhibiting Excellent Antimicrobial Performance” (J Med Chem, 2024).
≈ marks a conversion by molar mass, not a printed value. Calls of active or inactive are those of the source. The rule behind the calls is not given here.

Tests used:
[1] = system: Staphylococcus aureus; experiment: Antibacterial activity against Staphylococcus aureus ATCC 25923 incubated for 18 hrs by broth microdilution method; format: functional
[2] = system: Bacillus subtilis; experiment: Antibacterial activity against Bacillus subtilis ATCC 23857 incubated for 18 hrs by broth microdilution method; format: functional
[3] = system: Staphylococcus epidermidis; experiment: Antibacterial activity against Staphylococcus epidermidis ATCC 12228 incubated for 18 hrs by broth microdilution method; format: functional
[4] = system: Klebsiella pneumoniae; experiment: Antibacterial activity against Klebsiella pneumoniae ATCC 700603 incubated for 18 hrs by broth microdilution method; format: functional
[5] = system: Escherichia coli; experiment: Antibacterial activity against Escherichia coli ATCC 25922 incubated for 18 hrs by broth microdilution method; format: functional
[6] = system: Pseudomonas aeruginosa; experiment: Antibacterial activity against Pseudomonas aeruginosa ATCC 27853 incubated for 18 hrs by broth microdilution method; format: functional
[7] = system: Staphylococcus aureus; experiment: Bactericidal activity against Staphylococcus aureus ATCC 25923 incubated for 18 hrs by broth microdilution method; format: functional
[8] = system: Bacillus subtilis; experiment: Bactericidal activity against Bacillus subtilis ATCC 23857 incubated for 18 hrs by broth microdilution method; format: functional
[9] = system: Staphylococcus epidermidis; experiment: Bactericidal activity against Staphylococcus epidermidis ATCC 12228 incubated for 18 hrs by broth microdilution method; format: functional
[10] = system: Klebsiella pneumoniae; experiment: Bactericidal activity against Klebsiella pneumoniae ATCC 700603 incubated for 18 hrs by broth microdilution method; format: functional
[11] = system: Escherichia coli; experiment: Bactericidal activity against Escherichia coli ATCC 25922 incubated for 18 hrs by broth microdilution method; format: functional
[12] = system: Pseudomonas aeruginosa; experiment: Bactericidal activity against Pseudomonas aeruginosa ATCC 27853 incubated for 18 hrs by broth microdilution method; format: functional
[13] = system: Escherichia coli; experiment: Antibacterial activity against Escherichia coli at 2 times MIC preincubated with 256 ug/ml LPS for 1 hr followed by bacterial addition and measured after 5 hrs; format: functional, organism-based; conditions: time 6.0 hrs
[14] = system: Staphylococcus aureus; experiment: Induction of morphological change in Staphylococcus aureus assessed as bacterial lysis at 2 times MIC incubated for 30 mins by SEM analysis; format: functional, organism-based
[15] = system: Staphylococcus aureus; experiment: Induction of morphological change in Staphylococcus aureus assessed as bacterial collapse at 2 times MIC incubated for 30 mins by SEM analysis; format: functional, organism-based
[16] = system: Pseudomonas aeruginosa; experiment: Induction of morphological change in Pseudomonas aeruginosa assessed as bacterial lysis at 2 times MIC incubated for 30 mins by SEM analysis; format: functional, organism-based
[17] = system: Pseudomonas aeruginosa; experiment: Induction of morphological change in Pseudomonas aeruginosa assessed as bacterial collapse at 2 times MIC incubated for 30 mins by SEM analysis; format: functional, organism-based
[18] = system: Staphylococcus aureus; experiment: Induction of morphological distortion in Staphylococcus aureus assessed as bacterial collapse at 2 times MIC incubated for 30 mins by SEM analysis; format: functional, organism-based
[19] = system: Pseudomonas aeruginosa; experiment: Induction of morphological distortion in Pseudomonas aeruginosa assessed as bacterial collapse at 2 times MIC incubated for 30 mins by SEM analysis; format: functional, organism-based
[20] = system: Cell membrane; experiment: Induction of cell membrane disruption in Staphylococcus aureus assessed as PI uptake at 2 to 4 times MIC incubated for 2 hrs by PI staining based confocal laser scanning microscopy; format: cell membranes
[21] = system: Cell membrane; experiment: Induction of cell membrane disruption in Escherichia coli assessed as PI uptake at 2 to 4 times MIC incubated for 2 hrs by PI staining based confocal laser scanning microscopy; format: cell membranes
[22] = system: Cell membrane; experiment: Induction of cell membrane disruption in Escherichia coli assessed as PI uptake at 2 times MIC incubated for 2 hrs by PI staining based flow cytometry analysis (reference value: 11.9%); format: cell membranes
[23] = system: Cell membrane; experiment: Induction of cell membrane disruption in Escherichia coli assessed as PI uptake at 4 times MIC incubated for 2 hrs by PI staining based flow cytometry analysis (reference value: 11.9%); format: cell membranes
[24] = system: Cell membrane; experiment: Induction of cell membrane disruption in Staphylococcus aureus assessed as PI uptake at 2 times MIC incubated for 2 hrs by PI staining based flow cytometry analysis (reference value: 15.9%); format: cell membranes
[25] = system: Cell membrane; experiment: Induction of cell membrane disruption in Staphylococcus aureus assessed as PI uptake at 4 times MIC incubated for 2 hrs by PI staining based flow cytometry analysis (reference value: 15.9%); format: cell membranes
[26] = system: Pseudomonas aeruginosa; experiment: Drug resistance against Pseudomonas aeruginosa assessed as fold increase in MIC after 40 consecutive days of passages by sequential passaging method; format: functional; conditions: time 18.0 hrs
[27] = system: Staphylococcus aureus; experiment: Antibacterial activity against methicillin resistant Staphylococcus aureus incubated for 18 hrs by broth microdilution method; format: functional
[28] = system: Staphylococcus aureus; experiment: Antibacterial activity against methicillin resistant Staphylococcus aureus 113 incubated for 18 hrs by broth microdilution method; format: functional
[29] = system: Staphylococcus aureus; experiment: Antibacterial activity against Staphylococcus aureus S794 incubated for 18 hrs by broth microdilution method; format: functional
[30] = system: Staphylococcus aureus; experiment: Antibacterial activity against Staphylococcus aureus S125 incubated for 18 hrs by broth microdilution method; format: functional
[31] = system: Staphylococcus aureus; experiment: Antibacterial activity against methicillin resistant Staphylococcus aureus 75 incubated for 18 hrs by broth microdilution method; format: functional
[32] = system: Staphylococcus aureus; experiment: Antibacterial activity against Staphylococcus aureus incubated for 18 hrs by broth microdilution method; format: functional
[33] = system: Staphylococcus aureus; experiment: Antibacterial activity against kanamycin resistant Staphylococcus aureus incubated for 18 hrs by broth microdilution method; format: functional
[34] = system: Staphylococcus aureus; experiment: Antibacterial activity against rifampicin resistant Staphylococcus aureus incubated for 18 hrs by broth microdilution method; format: functional
[35] = system: Escherichia coli; experiment: Antibacterial activity against Escherichia coli incubated for 18 hrs by broth microdilution method; format: functional
[36] = system: Escherichia coli; experiment: Antibacterial activity against kanamycin resistant Escherichia coli incubated for 18 hrs by broth microdilution method; format: functional
[37] = system: Escherichia coli; experiment: Antibacterial activity against rifampicin resistant Escherichia coli incubated for 18 hrs by broth microdilution method; format: functional
[38] = system: Staphylococcus aureus; experiment: Antibacterial activity against Staphylococcus aureus ATCC 25923 infected in BALB/c mouse skin wound infection model assessed as reduction in wound bacterial load at 1 mg/ml, ip administered at 1 hr interval for total 6 treatment and measured after 1 hr post last dose; format: functional, organism-based; conditions: time 7.0 hrs
[39] = system: Staphylococcus aureus; experiment: Antibacterial activity against Staphylococcus aureus 794 infected in BALB/c mouse skin wound infection model assessed as reduction in TNFalpha level at 1 mg/ml, ip pre-infected with bacteria for 24 hrs followed by compound addition and measured after 13 days post infection; format: functional, organism-based; conditions: time 12.0 day
[40] = system: Staphylococcus aureus; experiment: Antibacterial activity against Staphylococcus aureus 794 infected in BALB/c mouse skin wound infection model assessed as wound healing at 1 mg/ml, ip pre-infected with bacteria for 24 hrs followed by compound addition and measured after 13 days post infection; format: functional, organism-based; conditions: time 12.0 day
[41] = system: Staphylococcus aureus; experiment: Antibacterial activity against Staphylococcus aureus 794 infected in BALB/c mouse skin wound infection model assessed as wound healing by measuring thickened scab at 1 mg/ml, ip pre-infected with bacteria for 24 hrs followed by compound addition and measured on day 9; format: functional, organism-based; conditions: time 9.0 day
[42] = system: Staphylococcus aureus; experiment: Antibacterial activity against Staphylococcus aureus 794 infected in BALB/c mouse skin wound infection model assessed as wound healing at 1 mg/ml, ip pre-infected with bacteria for 24 hrs followed by compound addition and measured on day 11; format: functional; conditions: time 11.0 day
[43] = Toxicity in BALB/c mouse infected with Staphylococcus aureus 794 assessed as hyperkeratosis at 1 mg/ml, ip pre-infected with bacteria for 24 hrs followed by compound addition and measured after 13 days by H and E staining based histopathological analysis; format: organism-based; conditions: in vivo, 312 h, time 13 day
[44] = Toxicity in BALB/c mouse infected with Staphylococcus aureus 794 assessed as cell necrosis at 1 mg/ml, ip pre-infected with bacteria for 24 hrs followed by compound addition and measured after 13 days by H and E staining based histopathological analysis; format: organism-based; conditions: in vivo, 312 h, time 13 day
[45] = Toxicity in BALB/c mouse infected with Staphylococcus aureus 794 assessed as inflammatory cell infiltration at 1 mg/ml, ip pre-infected with bacteria for 24 hrs followed by compound addition and measured after 13 days by H and E staining based histopathological analysis; format: organism-based; conditions: in vivo, 312 h, time 13 day

POLYMYXIN B gave an MIC [1] of 8 µM, an MIC [2] of 4 µM and an MIC [3] of 8 µM. It also gave an MIC [4] of 2 µM, an MIC [5] of 2 µM and an MIC [6] of 1 µM. For the same compound, the MBC [7] was 32 µM, the MBC [8] was 8 µM and the MBC [9] was 16 µM. For the same compound, the MBC [10] was 2 µM, the MBC [11] was 2 µM and the MBC [12] was 1 µM. For the same compound, the Activity [13] was “inactive”, the Activity [14] was “Active” and the Activity [15] was “Active”. The Activity [16] was “Active”, the Activity [17] was “Active” and the Activity [18] was “Active”. The Activity [19] was “Active”, the Activity [20] was “inactive” and the Activity [21] was “inactive”. For the same compound, the Activity [22] was 42.6%, the Activity [23] was 45.4% and the Activity [24] was 47.5%. It also gave an Activity [25] of 38%, a fold change (FC) [26] of 8 and an MIC [27] of 16 µM. It also gave an MIC [28] of 8 µM, an MIC [29] of 8 µM and an MIC [30] of 8 µM. It also gave an MIC [31] of 16 µM, an MIC [32] of 8 µM and an MIC [33] of 8 µM. For the same compound, the MIC [34] was 2 µM, the MIC [35] was 2 µM and the MIC [36] was 16 µM. The MIC [37] was 2 µM.

For `CN[C@H](CC(C)C)C(=O)N[C@H]1C(=O)N[C@@H](CC(N)=O)C(=O)N[C@H]2C(=O)N[C@H]3C(=O)N[C@H](C(=O)N[C@H](C(=O)O)c4cc(O)cc(O)c4-c4cc3ccc4O)[C@H](O)c3ccc(c(Cl)c3)Oc3cc2cc(c3O[C@@H]2O[C@H](CO)[C@@H](O)[C@H](O)[C@H]2O[C@H]2C[C@](C)(N)[C@H](O)[C@H](C)O2)Oc2ccc(cc2Cl)[C@H]1O` [VANCOMYCIN], the Activity [38] was “Active”, the Activity [39] was “Active” and the Activity [40] was “Active”. The Activity [41] was “Active”, the Activity [42] was “inactive” and the Activity [43] was “Toxic”. For the same compound, the Activity [44] was “Toxic”, the Activity [45] was “Toxic” and the MIC [27] was 0.5 µM (≈ 0.725 µg/mL). For the same compound, the MIC [28] was 0.5 µM (≈ 0.725 µg/mL), the MIC [29] was 64 µM (≈ 92.8 µg/mL) and the MIC [30] was 0.5 µM (≈ 0.725 µg/mL). The MIC [31] was 0.5 µM (≈ 0.725 µg/mL), the MIC [32] was 0.5 µM (≈ 0.725 µg/mL) and the MIC [33] was 0.5 µM (≈ 0.725 µg/mL). It also gave an MIC [34] of 128 µM (≈ 186 µg/mL), an MIC [35] of 64 µM (≈ 92.8 µg/mL) and an MIC [36] of 64 µM (≈ 92.8 µg/mL). The MIC [37] was 128 µM (≈ 186 µg/mL).
